In publication PMC4057637, “Efficacy of novel antibacterial compounds targeting histidine kinase YycG protein” (Applied Microbiology and Biotechnology, 2014):
In brackets after ≈: the same amount, converted by molar mass.

Tests used:
[1] = tested on: mature (24-h-old) biofilms of S. epidermidis ATCC 35984; experiment: Bacterial viability in mature biofilms by CLSM with Live/Dead staining; format: cell-based; conditions: 4 × MIC, 16 h, SYTO9/PI
Method: A diluted overnight culture of the bacteria was inoculated into cell culture glass bottom dishes (WPI, USA) and incubated at 37 °C for 24 h. […] The biofilms were washed with PBS and stained with SYTO9 and propidium iodide (PI), both of which were used at a concentration of 1 μM. SYTO9-stained live cells and PI-stained cells dead in biofilms were visualized by a Leica TCS SP5 confocal laser scanning microscope with a ×63 1.4-NA oil immersion objective. Three-dimensional biofilm images were created by IMARIS 7.0.0 software (Bitplane).

[2] = tested on: Clinical MRSE strains; experiment: MIC, broth dilution; format: cell-based, S. epidermidis; conditions: Staphylococcus epidermidis; Clinical MRSE strains (n = 5)
Method: (§1) Bacterial strains S. epidermidis ATCC 12228 (nonbiofilm forming), S. epidermidis ATCC 35984 (biofilm forming), S. aureus ATCC 49230, and S. aureus ATCC 25923 were from the American Type Culture Collection (ATCC, Manassas, USA) and were cultured in tryptic soy broth medium (TSB; Oxoid Ltd., Basingstoke, England). Ten clinical methicillin-resistant staphylococcal isolates, five MRSA isolates and five MRSE isolates, were collected from Huadong Teaching Hospital in Shanghai. Escherichia coli ATCC 25922 was grown in Luria-Bertani (LB) broth. The six compounds used in this study (H2-38, H2-39, H2-57, H2-60, H2-74, and H2-81) were screened from 56 derivatives of compound 2 in which the functional groups were modified, but the thiazolidine core structure was unchanged. The compounds were synthesized by Nanjing University of Technology. To generate the derivative compounds, halogen atoms were introduced into 4-thiazolidinone compounds that contained carboxylic acid moieties of phenoxy-acetic acid, (5-vinyl-furan-2-yl)-benzoic acid or (5-vinyl-thiophene-2-yl)-benzoic acid. The derivatives were dissolved in dimethyl sulfoxide (DMSO; Amresco, USA) to 200 mM for use as stock solutions.
(§2) MICs of the derivatives for S. epidermidis and S. aureus were determined by the broth dilution method according to the National Committee for Clinical Laboratory (NCCLS) recommendations (Turnidge and Bordash [2007]). Twofold dilutions of the derivatives in tubes containing 4 ml of Mueller-Hinton broth (MH, Sigma, Germany) were made to concentrations from 200 to 0.39 μM. Overnight cultures of the bacteria were adjusted to the 0.5 McFarland standards and inoculated 1:200 into the MH broth and then incubated at 37 °C for 16–20 h. The lowest concentration inhibiting visible growth of the bacteria was recorded as minimal inhibitory concentration (MIC).

[3] = tested on: E. coli ATCC 25922; experiment: MIC, broth dilution; format: cell-based; conditions: Escherichia coli, ATCC25922, 200 μM highest concentration used
Method: as §1, §2

[4] = tested on: S. aureus ATCC 49230; experiment: MIC, broth dilution; format: cell-based; conditions: Staphylococcus aureus, ATCC49230
Method: as §2

[5] = tested on: S. aureus ATCC 25923; experiment: MIC, broth dilution; format: cell-based; conditions: Staphylococcus aureus, ATCC25923
Method: as §2

[6] = tested on: S. epidermidis ATCC 12228; experiment: MIC, broth dilution; format: cell-based; conditions: Staphylococcus epidermidis, ATCC12228
Method: as §2

[7] = tested on: S. epidermidis ATCC 35984; experiment: MIC and MBC assays, broth dilution; format: cell-based; conditions: for MIC/MBC / MBC: S. epidermidis ATCC 35984; for MIC: ATCC35984, S. epidermidis ATCC 35984, MH broth
Method: as §2

[8] = tested on: S. epidermidis ATCC 35984 biofilms; experiment: Microtiter plate assay of S. epidermidis biofilms (crystal violet, MBEC); format: cell-based; conditions: 6-h-old (immature) biofilms
Method: The effects of the derivatives on immature (6-h-old) biofilms and mature (24-h-old) biofilms of S. epidermidis ATCC 35984 were detected by using a semiquantitative microtiter plate assay (Stepanovic et al. [2007]). An overnight culture of bacteria was inoculated 1:200 into TSB medium containing 0.25 % glucose and statically incubated in a polystyrene 96-well plate (200 μl per well) at 37 °C for 6 or 24 h. The medium containing any nonadherent bacteria was then removed, and serial dilutions of derivatives in 200 μl fresh TSB were added to the wells and incubated for another 16 h at 37 °C. The wells were then washed gently three times with phosphate buffered saline (PBS), air-dried, fixed with methanol, and stained with 2 % (w/v) crystal violet. The staining was visually assessed and scanned at 570 nm using a 96-well plate spectrophotometer (DTX880, Beckman Coulter, USA), and the minimal biofilm eradication concentration (MBEC) was measured (Ceri et al. [1999]).

[9] = Hemolytic activity; format: cell-based; conditions: healthy human erythrocytes, 5 % (v/v) suspension; for hemolysis at 1 h: at MIC
Method: The hemolytic activities of the derivatives on healthy human erythrocytes were also determined. Healthy human erythrocytes resuspended in normal saline (NS) at 5 % (v/v) were co-incubated with the derivatives at final concentrations of MIC, 4 × MIC, or 200 μM for 1 h at 37 °C in 96-well microtiter plates. The suspensions were centrifuged at 350 g for 10 min and the supernatant (100 μl) was transferred to new wells and measured at 570 nm on a spectrophotometer (Benchmark Microplate Reader; Bio-Rad, Hercules, CA, USA). The percentage of hemolysis was calculated by normalizing against the absorbance of erythrocytes treated with 1 % Triton X-100, which caused complete hemolysis; 0.1 % DMSO-treated cells were used as a control (Miyoshi et al. [1997]). The experiment was performed in quadruplicate wells and repeated independently three times.

[10] = tested on: Clinical MRSA strains; experiment: MIC, broth dilution; format: cell-based, S. aureus; conditions: Staphylococcus aureus; Clinical MRSA strains (n = 5)
Method: as §1, §2

[11] = Staphylococcus epidermidis, ATCC35984

Compound | proportion of viable cells in mature biofilms [1] | MIC [2] | MIC [3] | MIC [4] | MIC [5] | MIC [6] | MIC/MBC [7] | MBC [7, 11] | MBEC [8] | hemolysis at 1 h, 200 µM [9] | hemolysis at 1 h [9] | MIC [10] | MBC [7] | MIC ([7]; Staphylococcus epidermidis)
O=C(O)c1ccc(-c2ccc(/C=C3\S/C(=N\c4ccccc4)N(c4ccc(F)cc4)C3=O)s2)cc1 [H2-81, 4-{5-{{3-(4-fluorophenyl)-2-[(4-phenyl)imino]-4-oxothiazolidin-5-ylidene}methyl}thiophene-2-yl}benzoic acid] | 12.3% | 1.5 µM (≈ 0.751 µg/mL) | > 200 µM | 1.5 µM (≈ 0.751 µg/mL) | 1.5 µM (≈ 0.751 µg/mL) | 1.5 µM (≈ 0.751 µg/mL) | 1/4 | 6.3 µM (≈ 3.15 µg/mL) | 6.3 µM | 0.1 ± 0.03% | 0.06 ± 0.09% | 1.5 µM (≈ 0.751 µg/mL) |  | 
O=C(O)COc1ccc(C=C2SC(=Nc3ccc(Cl)cc3)N(c3ccc(Cl)cc3)C2=O)cc1 [H2-74, 2-{4-{[3-(4-chlorophenyl)-2-[(4-chlorophenyl)imino]-4-oxothiazolidin-5-ylidene}methyl}phenoxy}acetic acid] | 32.5% | 3.1 to 6.3 µM (≈ 1.55 to 3.15 µg/mL) | > 200 µM | 1.5 µM (≈ 0.749 µg/mL) | 3.1 µM (≈ 1.55 µg/mL) | 1.5 µM (≈ 0.749 µg/mL) | 1/16 | 25 µM (≈ 12.5 µg/mL) | 50.0 µM | 0.42 ± 0.03% | 0.14 ± 0.03% | 3.1 to 6.3 µM (≈ 1.55 to 3.15 µg/mL) |  | 
CCc1ccccc1/N=C1\S/C(=C\c2ccc(OCC(=O)O)c(OC)c2)C(=O)N1c1ccccc1CC [Compound 2, {2-{4-{3-(2-ethylphenyl)-2-[(2-ethylphenyl)imino]-4-oxothiazolidin-5-ylidene}methyl}-2-methoxyphenoxy}acetic acid] |  | 25 to 50 µM (≈ 12.9 to 25.8 µg/mL) | > 200 µM | 50 µM (≈ 25.8 µg/mL) | 50 µM (≈ 25.8 µg/mL) | 25 µM (≈ 12.9 µg/mL) | 1/4 | 100 µM (≈ 51.7 µg/mL) | 100.0 µM | 5.24 ± 0.21% | 2.31 ± 0.35% | 25 to 50 µM (≈ 12.9 to 25.8 µg/mL) | 100.0 µM (≈ 51.7 µg/mL) | 25 µM (≈ 12.9 µg/mL)
O=C(O)c1ccc(-c2ccc(C=C3SC(=Nc4ccc(F)cc4)N(c4ccc(F)cc4)C3=O)s2)cc1 [H2-60, 4-{5-{{3-(4-fluorophenyl)-2-[(4-fluorophenyl)imino]-4-oxothiazolidin-5-ylidene}methyl}thiophene-2-yl}benzoic acid] | 14% | 1.5 to 3.1 µM (≈ 0.778 to 1.61 µg/mL) | > 200 µM | 1.5 µM (≈ 0.778 µg/mL) | 1.5 µM (≈ 0.778 µg/mL) | 1.5 µM (≈ 0.778 µg/mL) | 1/8 | 12.5 µM (≈ 6.48 µg/mL) | 12.5 µM | 0.84 ± 0.03% | 0.52 ± 0.06% | 1.5 to 3.1 µM (≈ 0.778 to 1.61 µg/mL) |  | 
O=C(O)c1ccc(-c2ccc(/C=C3\S/C(=N\c4ccccc4)N(c4ccc(Cl)cc4)C3=O)o2)cc1 [H2-57, 4-{5-{{3-(4-chlorophenyl)-2-[(4-phenyl)imino]-4-oxothiazolidin-5-ylidene}methyl}furan-2-yl}benzoic acid] | 17.1% | 1.5 to 3.1 µM (≈ 0.751 to 1.55 µg/mL) | > 200 µM | 1.5 µM (≈ 0.751 µg/mL) | 3.1 µM (≈ 1.55 µg/mL) | 3.1 µM (≈ 1.55 µg/mL) | 1/4 | 12.5 µM (≈ 6.26 µg/mL) | 12.5 µM | 0.16 ± 0.04% | 0.14 ± 0.03% | 1.5 to 3.1 µM (≈ 0.751 to 1.55 µg/mL) |  | ≤ 3.1 µM
O=C(O)c1ccc(-c2ccc(C=C3SC(=Nc4ccc(Cl)cc4)N(c4ccc(Cl)cc4)C3=O)o2)cc1 [H2-39, 4-{5-{{3-(4-chlorophenyl)-2-[(4-chlorophenyl)imino]-4-oxothiazolidin-5-ylidene}methyl}furan-2-yl}benzoic acid] | 55.6% | 1.5 to 3.1 µM (≈ 0.803 to 1.66 µg/mL) | > 200 µM | 1.5 µM (≈ 0.803 µg/mL) | 1.5 µM (≈ 0.803 µg/mL) | 1.5 µM (≈ 0.803 µg/mL) | 1/8 | 12.5 µM (≈ 6.69 µg/mL) | 12.5 µM | 0.41 ± 0.05% | 0.12 ± 0.03% | 1.5 to 3.1 µM (≈ 0.803 to 1.66 µg/mL) |  | 
O=C(O)c1cccc(-c2ccc(C=C3SC(=Nc4ccc(Cl)cc4)N(c4ccc(Cl)cc4)C3=O)o2)c1 [H2-38, 3-{5-{{3-(4-chlorophenyl)-2-[(4-chlorophenyl)imino]-4-oxothiazolidin-5-ylidene}methyl}furan-2-yl}benzoic acid] | 42.3% | 1.5 to 3.1 µM (≈ 0.803 to 1.66 µg/mL) | > 200 µM | 1.5 µM (≈ 0.803 µg/mL) | 1.5 µM (≈ 0.803 µg/mL) | 1.5 µM (≈ 0.803 µg/mL) | 1/8 | 12.5 µM (≈ 6.69 µg/mL) | 12.5 µM | 0.28 ± 0.03% | 0.14 ± 0.03% | 1.5 to 3.1 µM (≈ 0.803 to 1.66 µg/mL) |  | 
